# Where a SMILES comes first, the peptide text is derived from it. Bridges are numbered along the chain shown (N, C = ends). [ ]: non-standard residue; d: D form. ξ: configuration not given here. Phe(4-NO2) = N[C@@H](Cc1ccc([N+](=O)[O-])cc1)C(=O)O; Phe(3,4,5-F3) = N[C@@H](Cc1cc(F)c(F)c(F)c1)C(=O)O; Phe(3,4-F2) = N[C@@H](Cc1ccc(F)c(F)c1)C(=O)O; d(cisHyp) = O=C(O)[C@H]1C[C@@H](O)CN1; Bta = N[C@@H](Cc1csc2ccccc12)C(=O)O; Hyp = O=C(O)[C@@H]1C[C@@H](O)CN1; NMeF = CN[C@@H](Cc1ccccc1)C(=O)O; dHyp = O=C(O)[C@H]1C[C@H](O)CN1; NMehSer = CN[C@@H](CCO)C(=O)O; NMeNle = CCCC[C@H](NC)C(=O)O; Pip = O=C(O)[C@@H]1CCCCN1; hSer = N[C@@H](CCO)C(=O)O; NMeA = CN[C@@H](C)C(=O)O; Orn = NCCC[C@H](N)C(=O)O; Dab = NCC[C@H](N)C(=O)O; Dap = NC[C@H](N)C(=O)O; ξC = NC(CS)C(=O)O; Sar = CNCC(=O)O
# Target: T1, Human PD-L1/PD-1 (Homo sapiens, UniProt Q9NZQ7)
# T1 construct: TVMV protease cleavage site (C); made in house; host or cells: HEK293T cells
# T1 sequence (Q9NZQ7 with tags, fused parts or gaps): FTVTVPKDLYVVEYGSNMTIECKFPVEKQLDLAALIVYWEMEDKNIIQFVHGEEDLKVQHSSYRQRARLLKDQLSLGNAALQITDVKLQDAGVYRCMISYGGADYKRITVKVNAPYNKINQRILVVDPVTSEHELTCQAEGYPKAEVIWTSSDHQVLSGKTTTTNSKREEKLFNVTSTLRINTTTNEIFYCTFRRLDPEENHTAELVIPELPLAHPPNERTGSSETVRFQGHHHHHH
# Assay: HTRF Human PD-L1/PD-1 binding assay (PD-1-Ig/PD-L1-His)
# Conditions: PD-L1-His 10 nM, PD-1-Ig 20 nM; class symbol; read-out: HTRF Human PD-L1/PD-1 Binding Assay IC50 Range
# Summary of the method: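 Inhibitors were preincubated 15 min with human PD-L1(18-239)-His (10 nM final), then PD-1(25-167)-Ig (20 nM final) was added for 15 min in dPBS/0.1% BSA/0.05% Tween-20. Eu-cryptate anti-Ig (1 nM) and APC anti-His (20 nM) were added; 665/620 nm ratio read after 30 min.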
row,IC50 [µM],Structure (SMILES)
1,0.001 to 0.0099,CCCC[C@H]1C(=O)N(C)[C@@H](CCCC)C(=O)N[C@@H](CCCNC(=N)N)C(=O)NC(C(=O)NCC(N)=O)CSCC(=O)N[C@@H](Cc2ccc(O)cc2)C(=O)N(C)[C@@H](C)C(=O)N[C@@H](CC(N)=O)C(=O)N2CCC[C@H]2C(=O)N[C@@H](CO)C(=O)N[C@@H](CCO)C(=O)N2CCC[C@H]2C(=O)N[C@@H](Cc2c[nH]c3ccccc23)C(=O)N[C@@H](CCO)C(=O)N[C@@H](Cc2c[nH]c3ccccc23)C(=O)N1C (stereo partly drawn) [Example 10051] ({CH2CO}-Y[NMeA]NPS[hSer]PW[hSer]W[NMeNle][NMeNle]R[ξC]G-NH2; thioether N-14)
2,0.1 to 0.99,CCCC[C@H]1C(=O)N2CCC[C@@H]2C(=O)N[C@@H](CO)C(=O)N[C@@H](C)C(=O)N(C)[C@@H](Cc2ccccc2)C(=O)N[C@@H](Cc2ccc(O)cc2)C(=O)N(C)CC(=O)N[C@@H](Cc2csc3ccccc23)C(=O)N[C@@H](Cc2ccc(O)cc2)C(=O)N[C@@H](CC(C)C)C(=O)N[C@H](C(=O)NCC(N)=O)CSCC(=O)N[C@@H](Cc2ccccc2)C(=O)N(C)[C@@H](Cc2ccccc2)C(=O)N1C [Example 10055] ({CH2CO}-F[NMeF][NMeNle][dP]SA[NMeF]Y[Sar][Bta]YLCG-NH2; thioether N-13)
3,0.001 to 0.0099,CCCC[C@H]1C(=O)N(C)[C@@H](CCCC)C(=O)N[C@@H](C)C(=O)NC(C(=O)NCC(N)=O)CSCC(=O)N[C@@H](Cc2ccc(O)cc2)C(=O)N(C)[C@@H](C)C(=O)N[C@@H](CC(N)=O)C(=O)N2CCC[C@H]2C(=O)N[C@@H](CC(N)=O)C(=O)N[C@@H](CC(C)C)C(=O)N2C[C@H](O)C[C@H]2C(=O)N[C@@H](Cc2c[nH]c3ccccc23)C(=O)N[C@@H](CO)C(=O)N[C@@H](Cc2c[nH]c3ccccc23)C(=O)N1C (stereo partly drawn) [Example 9134]
4,0.001 to 0.0099,"CCCC[C@H]1C(=O)N2C[C@@H](O)C[C@@H]2C(=O)N[C@@H](CC(=O)O)C(=O)N[C@@H](C(C)C)C(=O)N(C)[C@@H](Cc2ccccc2)C(=O)N[C@@H](Cc2ccc(O)cc2)C(=O)N2C[C@@H](O)C[C@@H]2C(=O)N[C@@H](Cc2c[nH]c3ccccc23)C(=O)N[C@@H](Cc2ccc(O)cc2)C(=O)N[C@@H](CCCN)C(=O)N[C@H](C(=O)NCC(N)=O)CSCC(=O)N[C@@H](Cc2ccc(F)c(F)c2)C(=O)N(C)[C@@H](Cc2ccccc2)C(=O)N1C [Example 9231] ({CH2CO}-[Phe(3,4-F2)][NMeF][NMeNle][dHyp]DV[NMeF]Y[dHyp]WY[Orn]CG-NH2; thioether N-13)"
5,0.01 to 0.0999,CCCC[C@H]1C(=O)N(C)[C@@H](CCCC)C(=O)N[C@@H](CCCNC(=N)N)C(=O)N[C@H](C(=O)NCC(N)=O)CSCC(=O)N[C@@H](Cc2ccc(O)cc2)C(=O)N2CCCC[C@H]2C(=O)N[C@@H](CC(=O)O)C(=O)N2CCC[C@H]2C(=O)N[C@@H](Cc2c[nH]cn2)C(=O)N[C@@H](CCCN)C(=O)N2C[C@H](O)C[C@H]2C(=O)N[C@@H](Cc2c[nH]c3ccccc23)C(=O)N[C@@H](CO)C(=O)N[C@@H](Cc2c[nH]c3ccccc23)C(=O)N1C [Example 1537] ({CH2CO}-Y[Pip]DPH[Orn][Hyp]WSW[NMeNle][NMeNle]RCG-NH2; thioether N-14)
6,0.01 to 0.0999,"CCCC[C@H]1C(=O)N2C[C@H](O)C[C@@H]2C(=O)N[C@@H](CC(=O)O)C(=O)N[C@@H](C(C)C)C(=O)N(C)[C@@H](Cc2ccccc2)C(=O)N[C@@H](CCC(=O)O)C(=O)N2C[C@H](O)C[C@@H]2C(=O)N[C@@H](Cc2c[nH]c3ccccc23)C(=O)N[C@@H](Cc2ccc(O)cc2)C(=O)N[C@@H](CCN)C(=O)N[C@H](C(=O)NCC(N)=O)CSCC(=O)N[C@@H](Cc2cc(F)c(F)c(F)c2)C(=O)N(C)[C@@H](Cc2ccccc2)C(=O)N1C [Example 9333] ({CH2CO}-[Phe(3,4,5-F3)][NMeF][NMeNle][d(cisHyp)]DV[NMeF]E[d(cisHyp)]WY[Dab]CG-NH2; thioether N-13)"
7,0.01 to 0.0999,CCCC[C@H]1C(=O)N(C)[C@@H](CCCC)C(=O)N[C@@H](C)C(=O)N[C@H](C(=O)NCC(N)=O)CSCC(=O)N[C@@H](Cc2ccc(O)cc2)C(=O)N(C)[C@@H](C)C(=O)N[C@@H](CC(N)=O)C(=O)N2CCC[C@H]2C(=O)N[C@@H](Cc2cnc[nH]2)C(=O)N[C@@H](CCC(N)=O)C(=O)N2C[C@H](O)C[C@H]2C(=O)N[C@@H](Cc2c[nH]c3ccccc23)C(=O)N[C@@H](CO)C(=O)N[C@@H](Cc2csc3ccccc23)C(=O)N1C [Example 1542] ({CH2CO}-Y[NMeA]NPHQ[Hyp]WS[Bta][NMeNle][NMeNle]ACG-NH2; thioether N-14)
8,0.01 to 0.0999,CCCC[C@H]1C(=O)N(C)CC(=O)N[C@@H](CC(=O)O)C(=O)N[C@@H](C(C)C)C(=O)N(C)[C@@H](Cc2ccccc2)C(=O)N[C@@H](Cc2ccc(O)cc2)C(=O)N(C)CC(=O)N[C@@H](Cc2c[nH]c3ccccc23)C(=O)N[C@@H](Cc2ccc(O)cc2)C(=O)N[C@@H](CC(C)C)C(=O)N[C@H](C(=O)NCC(N)=O)CSCC(=O)N[C@@H](Cc2ccc([N+](=O)[O-])cc2)C(=O)N(C)[C@@H](Cc2ccccc2)C(=O)N1C [Example 3244] ({CH2CO}-[Phe(4-NO2)][NMeF][NMeNle][Sar]DV[NMeF]Y[Sar]WYLCG-NH2; thioether N-13)
9,0.01 to 0.0999,CCCC[C@H]1C(=O)N(C)[C@@H](CCCC)C(=O)N[C@@H](CCC(=O)O)C(=O)N[C@H](C(=O)NCC(N)=O)CSCC(=O)N[C@@H](Cc2ccc(OC)cc2)C(=O)N(C)[C@@H](C)C(=O)N[C@@H](CCN)C(=O)N2CCC[C@H]2C(=O)N[C@@H](CN)C(=O)N[C@@H](CCCCN)C(=O)N2C[C@H](O)C[C@H]2C(=O)N[C@@H](Cc2c[nH]c3ccccc23)C(=O)N[C@@H](CCN)C(=O)N[C@@H](Cc2c[nH]c3ccccc23)C(=O)N1C [Example 7123] ({CH2CO}-Y(Me)[NMeA][Dab]P[Dap]K[Hyp]W[Dab]W[NMeNle][NMeNle]ECG-NH2; thioether N-14)

# Same assay, conditions: PD-L1-His 10 nM, PD-1-Ig 20 nM; read-out: HTRF Human PD-L1/PD-1 Binding Assay IC50
row,IC50 [µM],Structure (SMILES)
1,0.0053,CCCC[C@H]1C(=O)N(C)[C@@H](CCCC)C(=O)N[C@@H](CCC(=O)O)C(=O)N[C@H](C(=O)NCC(N)=O)CSCC(=O)N[C@@H](Cc2ccc(O)cc2)C(=O)N2CCCC[C@H]2C(=O)N[C@@H](CC(=O)O)C(=O)N2CCC[C@H]2C(=O)N[C@@H](Cc2cnc[nH]2)C(=O)N[C@@H](CCC(N)=O)C(=O)N2C[C@H](O)C[C@H]2C(=O)N[C@@H](Cc2c[nH]c3ccccc23)C(=O)N[C@@H](CO)C(=O)N[C@@H](Cc2csc3ccccc23)C(=O)N1C [Example 1513] ({CH2CO}-Y[Pip]DPHQ[Hyp]WS[Bta][NMeNle][NMeNle]ECG-NH2; thioether N-14)
2,0.0109,CCCC[C@H]1C(=O)N(C)[C@@H](CCOC)C(=O)N[C@@H](CC(C)C)C(=O)N[C@H](C(=O)NCC(N)=O)CSCC(=O)N[C@@H](Cc2ccc(O)cc2)C(=O)N(C)[C@@H](C)C(=O)N[C@@H](CC(N)=O)C(=O)N2CCC[C@H]2C(=O)N[C@@H](Cc2c[nH]cn2)C(=O)N[C@@H](CCC(N)=O)C(=O)N2C[C@H](O)C[C@H]2C(=O)N[C@@H](Cc2c[nH]c3ccccc23)C(=O)NCC(=O)N[C@@H](Cc2c[nH]c3ccccc23)C(=O)N1C [Example 10143] ({CH2CO}-Y[NMeA]NPHQ[Hyp]WGW[NMeNle][NMehSer](Me)LCG-NH2; thioether N-14)
3,0.158,CCCC[C@H]1C(=O)N(C)CC(=O)N[C@@H](CC(=O)O)C(=O)N[C@@H](C)C(=O)N(C)[C@@H](Cc2ccccc2)C(=O)N[C@@H](Cc2ccc(O)cc2)C(=O)N2C[C@@H](O)C[C@@H]2C(=O)N[C@@H](Cc2c[nH]c3ccccc23)C(=O)N[C@@H](Cc2ccc(O)cc2)C(=O)N[C@@H](CC(C)C)C(=O)N[C@H](C(=O)NCC(N)=O)CSCC(=O)N[C@@H](Cc2ccccc2)C(=O)N(C)[C@@H](Cc2ccccc2)C(=O)N1C [Example 10083] ({CH2CO}-F[NMeF][NMeNle][Sar]DA[NMeF]Y[dHyp]WYLCG-NH2; thioether N-13)

# — patent US10538555B2, “Macrocyclic inhibitors of the PD-1/PD-L1 and CD80(B7-1)/PD-L1 protein/protein interactions” (BRISTOL-MYERS SQUIBB COMPANY, priority 2014, dated 2020)
